Where a name gives a salt, the structure may show the parent alone. Read-outs that look alike come from different tables or passages of the source.
Columns and labels:
[1] = parameters: species or system Male Beagle dogs; settings: dog, in vivo, po, 50 mg/kg
Protocol: (§1) Male Beagle dogs were fasted overnight and were divided into 4 groups of 4 animals each. The four groups were treated orally with different NAC solutions according to the following scheme: […] For each group of animals the dose of NAC ([…]) contained an amount of ^14 C-NAC equal to 20 μCi/kg. Blood samples were withdrawn by a heparinized syringe just before the treatment and 10, 20, 30, 45, 60, 120, 240, 360, 480 and 1,440 minutes after treatment. The blood samples were treated and stored according to the same procedure described in Example 1.

[2] = result in words; cited from earlier work
[3] = Plasma level of unmodified NAC after oral administration of NAC solutions to rats (GC-MS); assay type: in vivo, Sprague Dawley rats; settings: rat, 300 mg/kg NAC (100 μCi/kg 3H-NAC), 0-8 h, * p < 0.005 (Student's t) for NAC-THAM 1:1, read-out: AUC0-8 h, plasma NAC (total unmodified NAC)
Protocol: Sprague Dawley rats after overnight fast were divided into 7 groups of 33 animals each. These seven groups of animals were treated with different NAC solutions by oral route according to the following scheme: […] Blood samples were withdrawn just before the treatment and 15, 20, 45, 60, 90, 120, 240, 360, 480 and 1,440 minutes after treatment, via a heparinized syringe. The blood was immediately transferred into plastic tubes containing sodium dithionite (1 mg/5 μl) and 0.02N sodium EDTA (200 μl ). The plasma was separated by centrifugation at 5,000×g at 4° C. for 20 minutes and the samples thus obtained were stored at -20° C. until the analysis. […] The samples were kept at 37° C. for one hour and then an acetone:formic acid=4:1 (1 ml) mixture was added. The proteins were separated at 20,000×g for 20 minutes by centrifugation. To the supernatant 2M HCl (200 μl) was added and then the NAC was extracted twice with ethyl acetate (6 ml). […] At the end of the reaction, excess isopropanol was eliminated and the samples were reacted with 3:1 ethyl acetate:pentafluoropropionic anhydride (200 μl) at 60° C. for 30 minutes. […] In Table 1 the plasma concentrations of NAC, expressed as AUC0-8h, the total NAC detected expressed as g/l, are reported for each group of animals and treatment regimen.

[4] = Total radioactivity in plasma after oral 3H-NAC in rats; assay type: in vivo, Sprague Dawley rats; settings: rat, 300 mg/kg NAC (100 μCi/kg 3H-NAC), 0-24 h
Protocol: Sprague Dawley rats after overnight fast were divided into 7 groups of 33 animals each. These seven groups of animals were treated with different NAC solutions by oral route according to the following scheme:
Group 1-NAC (300 mg/kg) dissolved in water (10 ml/kg)
Group 5-NAC (300 mg/kg) and THAM (222.7 mg/kg) dissolved in water (10 ml/kg); molar ratio 1:1
For each group of animals the NAC dose (300 mg/kg) contained ^3 H-NAC in an amount yielding 100 μCi/kg. Blood samples were withdrawn just before the treatment and 15, 20, 45, 60, 90, 120, 240, 360, 480 and 1,440 minutes after treatment, via a heparinized syringe. The blood was immediately transferred into plastic tubes containing sodium dithionite (1 mg/5 μl) and 0.02N sodium EDTA (200 μl ). The plasma was separated by centrifugation at 5,000×g at 4° C. for 20 minutes and the samples thus obtained were stored at -20° C. until the analysis.
Samples of plasma (50 μl) were added to Lumagel (10 ml), were stirred and were then allowed to stand in the scintillation counter (Beckman LS 8100) at 15° C. for 4 hours. Radioactivity was measured after the stabilization time.
The total radioactivity in plasma after administration of 300 mg/kg of NAC (containing 100 μCi/kg of ^3 H-NAC) (group 1) and after administration of the same amount of NAC with THAM in the ratio 1:1 (group 5) are reported in Table 2.

in vivo = experiment: in vivo; parameters: species or system Male Beagle dogs; settings: dog, po, 50 mg/kg
Protocol: as §1

[5] = THAM salt; result in words; cited from earlier work

Structure (SMILES): CC(=O)N[C@@H](CS)C(=O)O [NAC, N-acetylcysteine]
- AUC0-24 h, total radioactivity in plasma [1]: 1864.13 ± 856.57 mghl^-1
- solubility [2]: soluble
- AUC(0-t) at 8 h [3]: 105000 ± 3000 ng·h/mL
- AUC0-24 h, total radioactivity in plasma [4]: 4048.3 ± 105.9 mgh/l
- AUC(0-inf) (in vivo; AUC0-.infin., plasma NAC (unmodified)): 57500 ± 7290 ng·h/mL

Structure (SMILES): CC(=O)N[C@@H](CS)C(=O)O [NAC-lysinate, NAC lysinate]
- total amount of absorbed NAC compared with NAC as such [1]: not different
- AUC0-24 h, total radioactivity in plasma [1]: 1247.23 ± 185.18 mghl^-1
- AUC0-.infin., plasma NAC (unmodified) (in vivo): 73.37 ± 10.33 mgh/l
- amount of unmodified NAC in plasma compared with NAC alone (in vivo): do not provide plasma levels meaningfully different from those of NAC itself

Structure (SMILES): C[C@@H]1O[C@@H]1P(=O)(O)O [THAM salt of the antibiotic Fosfomycin]
- bioavailability [5]: better bioavailability

From patent US5080906A, “Method and composition for oral administration of N-acetylcysteine” (Zambon Group, S.p.A., priority 1989, dated 1992)
